Data on 29 compounds can be found in patent US9278942B2, “Non-steroidal compounds as androgen receptor modulators” (FLX Discoveries Oy, priority 2011, dated 2016).

The first assay addresses T1, human AR (Homo sapiens, UniProt P10275).
T1 construct: expressed in transfected cells; host or cells: COS-1
T1 sequence (P10275 1-920): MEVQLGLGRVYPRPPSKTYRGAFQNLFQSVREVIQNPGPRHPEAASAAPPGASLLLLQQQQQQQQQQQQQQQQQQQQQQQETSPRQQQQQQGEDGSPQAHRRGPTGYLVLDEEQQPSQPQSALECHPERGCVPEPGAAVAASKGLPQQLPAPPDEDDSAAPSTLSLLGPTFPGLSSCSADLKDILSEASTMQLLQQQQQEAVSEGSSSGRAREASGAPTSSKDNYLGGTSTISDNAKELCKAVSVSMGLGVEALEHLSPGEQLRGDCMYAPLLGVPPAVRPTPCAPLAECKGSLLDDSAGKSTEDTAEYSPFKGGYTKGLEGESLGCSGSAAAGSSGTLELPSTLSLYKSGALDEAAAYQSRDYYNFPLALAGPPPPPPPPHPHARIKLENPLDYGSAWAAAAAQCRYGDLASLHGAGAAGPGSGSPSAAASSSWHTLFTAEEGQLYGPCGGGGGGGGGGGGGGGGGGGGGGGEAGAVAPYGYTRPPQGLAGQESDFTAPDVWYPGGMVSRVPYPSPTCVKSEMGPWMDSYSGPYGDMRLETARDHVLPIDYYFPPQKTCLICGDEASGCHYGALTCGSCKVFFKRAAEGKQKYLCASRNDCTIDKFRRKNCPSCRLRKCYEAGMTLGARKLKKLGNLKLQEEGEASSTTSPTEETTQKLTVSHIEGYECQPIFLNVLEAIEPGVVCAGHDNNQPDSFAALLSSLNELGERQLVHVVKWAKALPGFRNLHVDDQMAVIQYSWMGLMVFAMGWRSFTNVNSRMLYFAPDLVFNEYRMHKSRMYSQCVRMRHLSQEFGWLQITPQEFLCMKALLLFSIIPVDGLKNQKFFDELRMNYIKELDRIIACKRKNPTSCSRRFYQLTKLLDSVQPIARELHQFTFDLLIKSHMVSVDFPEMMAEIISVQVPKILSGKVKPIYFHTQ
Description: Competitive AR binding assay against [3H]-R1881 in transiently transfected COS-1 cells. As to conditions: Table 1; compound 13.4 μM; [3H]-R1881 1.34 nM; complete inhibition equals 100%. The method, then: Competitive AR Binding Assay.
AR binding was measured by a competitive assay against [^3H]-R1881 (PerkinElmer) in transiently transfected COS-1 cells. One day before transfection, COS-1 cells were seeded into 2 ml of DMEM (Dulbecco's modified Eagle medium, Gipco) with 10% dextran-charcoal-treated fetal bovine serum and 0.25% (vol/vol) Penicillin-Streptomysin (Euroclone) at a density of 140×10^3 cells/well. After medium change to DMEM 2.5% FBS, the cells were transfected for 24 hours with 10 ng/well of human AR expression vector pSG5 hAR by using the TransIT method (Micrus Bio TransIT LT1, Transfection Reagent). After 36 hours, the cells where treated with tested compounds using 10000 fold molarities compared to labelled R1881 (1.34 nM). After 2 hours of incubation at 37° C., the medium was removed. The cells were removed from the wells to 150 μl of 1× phosphate buffered saline (PBS), transferred to Eppendorf tubes and centrifuged at 4° C. using 4000×g for 5 min, and then washed twice with 150 μl of PBS. The cell pellets were dissolved to 50 μl of 0.5M NaOH and incubated for 15 min at 56° C., after which the samples (three replicates for each sample compound) were transferred to liquid twinkle tubes with 3 ml of OptiPhase HiSafe 3 twinkle solution (PerkinElmer) and radioactivity of AR-bound [^3H]-R1881 determined. The results were measured with LKB WALLAC 1214 racbeta equipment. The ability of test compounds to bind AR is reported as reduction in bound radioactivity obtained with 1.34 nM [^3H]-R1881.
The results (% inhibition) were calculated as: % inhibition=100−[100×(averagecompound/average[3H]-R1881)].
As to `COc1ccccc1C1=NOC(Cc2ccccc2)(c2ccccc2)C1` (single isomer, unassigned) [Example 12a, 5-Benzyl-3-(2-methoxyphenyl)-5-phenyl-4,5-dihydro-isoxazole], the “Inhibition of [3H]-R1881 binding at 1.34 nM ± S.D.” value (from here on “Inhibition of [3H]-R1881 binding”) was 55.9 ± 1.1%.

As for `COc1ccccc1C1=NOC(Cc2ccccc2)(c2ccccc2)C1` (single isomer, unassigned) [Example 12b, 5-Benzyl-3-(2-methoxyphenyl)-5-phenyl-4,5-dihydro-isoxazole], the “Inhibition of [3H]-R1881 binding” value is recorded as 30.2 ± 6.0%.

With `COc1cccc(C2=NOC(Cc3ccccc3)(c3ccccc3)C2)c1` (single isomer, unassigned) [Example 13a, 5-Benzyl-5-phenyl-3-(3-methoxyphenyl)-4,5-dihydro-isoxazole], the “Inhibition of [3H]-R1881 binding” value was found to be 31.1 ± 5.6%.

For the compound `COc1cccc(C2=NOC(Cc3ccccc3)(c3ccccc3)C2)c1` (single isomer, unassigned) [Example 13b, 5-Benzyl-5-phenyl-3-(3-methoxyphenyl)-4,5-dihydro-isoxazole], the “Inhibition of [3H]-R1881 binding” value is 1.6 ± 6.6%.

With `COc1ccc(C2=NOC(Cc3ccccc3)(c3ccccc3)C2)cc1` (single isomer, unassigned) [Example 14a, 5-Benzyl-3-(4-methoxyphenyl)-5-phenyl-4,5-dihydro-isoxazole], the “Inhibition of [3H]-R1881 binding” value amounted to 29.6 ± 3.4%.

Turning to `COc1ccc(C2=NOC(Cc3ccccc3)(c3ccccc3)C2)cc1` (single isomer, unassigned) [Example 14b, 5-Benzyl-3-(4-methoxyphenyl)-5-phenyl-4,5-dihydro-isoxazole], the “Inhibition of [3H]-R1881 binding” value was found to be 0%.

On to `Fc1ccccc1C1=NOC2CCCCC12` (single isomer, unassigned) [Example 27a, 3-(2-Fluoro-phenyl)-3a,4,5,6,7,7a-hexahydro-benzo[d]-isoxazole], for which the “Inhibition of [3H]-R1881 binding” value turned out to be 17.0 ± 7.0%.

In the case of `Fc1ccccc1C1=NOC2CCCCC12` (single isomer, unassigned) [Example 27b, 3-(2-Fluoro-phenyl)-3a,4,5,6,7,7a-hexahydro-benzo[d]-isoxazole], the “Inhibition of [3H]-R1881 binding” value turned out to be 0%.

Turning to `Clc1ccccc1C1=NOC2CCCCC12` (single isomer, unassigned) [Example 30a, 3-(2-Chloro-phenyl)-3a,4,5,6,7,7a-hexahydro-benzo[d]-isoxazole], the “Inhibition of [3H]-R1881 binding” value is recorded as 30.2 ± 3.8%.

Turning to `Clc1ccccc1C1=NOC2CCCCC12` (single isomer, unassigned) [Example 30b, 3-(2-Chloro-phenyl)-3a,4,5,6,7,7a-hexahydro-benzo[d]-isoxazole], the “Inhibition of [3H]-R1881 binding” value is listed as 66.3 ± 6.5%.

Regarding `Clc1cccc(C2=NOC3CCCCC23)c1` (single isomer, unassigned) [Example 31a, 3-(3-Chloro-phenyl)-3a,4,5,6,7,7a-hexahydro-benzo[d]-isoxazole], the “Inhibition of [3H]-R1881 binding” value was 20.3 ± 9.9%.

As to `Clc1cccc(C2=NOC3CCCCC23)c1` (single isomer, unassigned) [Example 31b, 3-(3-Chloro-phenyl)-3a,4,5,6,7,7a-hexahydro-benzo[d]-isoxazole], the “Inhibition of [3H]-R1881 binding” value is given as 0%.

`O=[N+]([O-])c1ccc(C2=NOC3CCCCC23)cc1` (single isomer, unassigned) [Example 34a, 3-(4-Nitro-phenyl)-3a,4,5,6,7,7a-hexahydro-benzo[d]-isoxazole]: the “Inhibition of [3H]-R1881 binding” value is given as 34.7 ± 2.7%.

Turning to `O=[N+]([O-])c1ccc(C2=NOC3CCCCC23)cc1` (single isomer, unassigned) [Example 34b, 3-(4-Nitro-phenyl)-3a,4,5,6,7,7a-hexahydro-benzo[d]-isoxazole], the “Inhibition of [3H]-R1881 binding” value was 0%.

`CC(C)CN1C(c2ccc([N+](=O)[O-])cc2)=NOC1(C)Cc1ccccc1` (single isomer, unassigned) [Example 61a, 5-Benzyl-4-isobutyl-5-methyl-3-(4-nitro-phenyl)-4,5-dihydro-[1,2,4]oxadiazole]: the “Inhibition of [3H]-R1881 binding” value was found to be 14.9 ± 1.8%.

On to `CC(C)CN1C(c2ccc([N+](=O)[O-])cc2)=NOC1(C)Cc1ccccc1` (single isomer, unassigned) [Example 61b, 5-Benzyl-4-isobutyl-5-methyl-3-(4-nitro-phenyl)-4,5-dihydro-[1,2,4]oxadiazole], for which the “Inhibition of [3H]-R1881 binding” value is 0%.

As to `COc1ccc(CC2=NOC(C)(Cc3ccccc3)N2CC(C)C)cc1` (single isomer, unassigned) [Example 65a, 5-Benzyl-4-isobutyl-3-(4-methoxy-benzyl)-5-methyl-4,5-dihydro-[1,2,4]oxadiazole], the “Inhibition of [3H]-R1881 binding” value is 0%.

For the compound `COc1ccc(CC2=NOC(C)(Cc3ccccc3)N2CC(C)C)cc1` (single isomer, unassigned) [Example 65b, 5-Benzyl-4-isobutyl-3-(4-methoxy-benzyl)-5-methyl-4,5-dihydro-[1,2,4]oxadiazole], the “Inhibition of [3H]-R1881 binding” value is 13.5 ± 1.6%.

Consider `CC1(Cc2ccccc2)CC(c2ccccc2Cl)=NO1` (centres unmarked) [Example 5b, 5-Benzyl-3-(2-chlorophenyl)-5-methyl-4,5-dihydroisoxazole], for which the “Inhibition of [3H]-R1881 binding” value was determined as 59.7 ± 2.7%.

Turning to `CCCCN1C(c2cccc(Cl)c2)=NOC1(C)Cc1ccccc1` (centres unmarked) [Example 50b, 5-Benzyl-4-butyl-3-(3-chloro-phenyl)-5-methyl-4,5-dihydro-[1,2,4]oxadiazole], the “Inhibition of [3H]-R1881 binding” value stood at 55.7 ± 1.9%.

The assay is the same for the next values; noted with them: Table 1; compound 13.4 μM; [3H]-R1881 1.34 nM; complete inhibition equals 100%; read-out: Inhibition of [3H]-R1881 binding at 1.34 nM ± S.D.
As for `COc1cccc(C2=NOC(C)(Cc3ccccc3)C2)c1` (centres unmarked) [Example 2ab, 5-Benzyl-3-(3-methoxyphenyl)-5-methyl-4,5-dihydro-isoxazole], the inhibition – broadly, the drop in the measured response relative to a control, in per cent – at 13.4 µM was determined as 64.2 ± 2.2%.

With `CC1(Cc2ccccc2)CC(c2ccccc2F)=NO1` (centres unmarked) [Example 4ab, 5-Benzyl-3-(2-fluorophenyl)-5-methyl-4,5-dihydro-isoxazole], the inhibition at 13.4 µM came out at 69.9 ± 3.3%.

For `CC1(Cc2ccccc2)CC(c2ccccc2Cl)=NO1` (centres unmarked) [Example 5a, 5-Benzyl-3-(2-chlorophenyl)-5-methyl-4,5-dihydroisoxazole], the inhibition at 13.4 µM came out at 42.7 ± 6.6%.

With `CC1(Cc2ccccc2)CC(c2cccc(Cl)c2)=NO1` (centres unmarked) [Example 6ab, 5-Benzyl-3-(3-chlorophenyl)-5-methyl-4,5-dihydroisoxazole], the inhibition at 13.4 µM turned out to be 31.4 ± 1.9%.

On to `CC1(Cc2ccccc2)CC(c2ccc(Cl)cc2)=NO1` (centres unmarked) [Example 7ab, 5-Benzyl-3-(4-chlorophenyl)-5-methyl-4,5-dihydro-isoxazole], for which the inhibition at 13.4 µM worked out at 51 ± 2.4%.

Regarding `CC1(Cc2ccccc2)CC(c2ccc(C#N)cc2)=NO1` (centres unmarked) [Example 8ab, 4-(5-Benzyl-5-methyl-4,5-dihydro-isoxazol-3-yl)-benzonitrile], the inhibition at 13.4 µM stood at 30.4 ± 2.9%.

`CCCCN1C(c2cccc(Cl)c2)=NOC1(C)Cc1ccccc1` (centres unmarked) [Example 50a, 5-Benzyl-4-butyl-3-(3-chloro-phenyl)-5-methyl-4,5-dihydro-[1,2,4]oxadiazole]: the inhibition at 13.4 µM was determined as 63.8 ± 1.8%.

As to `CCCCN1C(c2cccc3ccccc23)=NOC1(C)Cc1ccccc1` (centres unmarked) [Example 53ab, 5-Benzyl-4-butyl-5-methyl-3-napthalen-1-yl-4,5-dihydro-[1,2,4]oxadiazole], the inhibition at 13.4 µM turned out to be 29.8 ± 10.8%.

With `CCCCN1C(c2ccc3ccccc3c2)=NOC1(C)Cc1ccccc1` (centres unmarked) [Example 54ab, 5-Benzyl-4-butyl-5-methyl-3-napthalen-2-yl-4,5-dihydro-[1,2,4]oxadiazole], the inhibition at 13.4 µM was 28.2 ± 3%.
